One compound from doi:10.1101/2020.04.06.027102v2 (biorxiv, 2020) can be followed below.

Molecules are shown by their SMILES.

Holding throughout (test): UV-visible dark absorbance spectrum of purified reconstituted rhodopsin
Holding throughout (format): binding

Test [1] deals with T1, Eumaeus atala LWRh (LW opsin) (Eumaeus atala, UniProt A0A7T3U8W4).
T1 sequence (A0A7T3U8W4 1-381): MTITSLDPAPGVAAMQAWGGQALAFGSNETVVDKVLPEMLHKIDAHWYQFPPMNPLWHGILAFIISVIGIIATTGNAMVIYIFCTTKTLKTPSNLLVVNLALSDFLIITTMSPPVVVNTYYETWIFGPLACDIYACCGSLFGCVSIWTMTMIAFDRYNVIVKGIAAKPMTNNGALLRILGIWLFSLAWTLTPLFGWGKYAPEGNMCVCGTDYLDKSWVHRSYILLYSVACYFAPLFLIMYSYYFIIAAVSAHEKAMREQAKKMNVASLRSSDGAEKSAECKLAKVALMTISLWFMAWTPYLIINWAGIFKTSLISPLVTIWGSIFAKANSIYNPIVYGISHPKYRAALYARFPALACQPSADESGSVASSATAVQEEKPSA
The settings on record: covalent, 40 uM 11-cis-retinal, figure legend prints 567 nm.

The target of the next test is T2, Eumaeus atala UVRh (Eumaeus atala, UniProt A0A7T3U8H7).
T2 sequence (A0A7T3U8H7 1-406): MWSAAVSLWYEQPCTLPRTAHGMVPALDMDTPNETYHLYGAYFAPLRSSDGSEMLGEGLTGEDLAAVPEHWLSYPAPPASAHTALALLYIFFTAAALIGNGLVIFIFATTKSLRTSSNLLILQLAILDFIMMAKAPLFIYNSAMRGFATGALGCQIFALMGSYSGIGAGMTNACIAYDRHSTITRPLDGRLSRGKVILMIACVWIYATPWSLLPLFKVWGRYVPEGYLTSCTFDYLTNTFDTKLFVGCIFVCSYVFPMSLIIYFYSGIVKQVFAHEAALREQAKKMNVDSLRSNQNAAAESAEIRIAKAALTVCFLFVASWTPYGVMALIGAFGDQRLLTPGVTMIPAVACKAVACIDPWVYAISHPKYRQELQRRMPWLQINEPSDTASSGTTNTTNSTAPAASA
The settings on record: covalent, 40 uM 11-cis-retinal.

For a further test, the target named is T3, Eat-BRh1 (BRh1, Eat-B1) (Eumaeus atala, UniProt A0A7T3U8I9).
T3 sequence (A0A7T3U8I9 1-380): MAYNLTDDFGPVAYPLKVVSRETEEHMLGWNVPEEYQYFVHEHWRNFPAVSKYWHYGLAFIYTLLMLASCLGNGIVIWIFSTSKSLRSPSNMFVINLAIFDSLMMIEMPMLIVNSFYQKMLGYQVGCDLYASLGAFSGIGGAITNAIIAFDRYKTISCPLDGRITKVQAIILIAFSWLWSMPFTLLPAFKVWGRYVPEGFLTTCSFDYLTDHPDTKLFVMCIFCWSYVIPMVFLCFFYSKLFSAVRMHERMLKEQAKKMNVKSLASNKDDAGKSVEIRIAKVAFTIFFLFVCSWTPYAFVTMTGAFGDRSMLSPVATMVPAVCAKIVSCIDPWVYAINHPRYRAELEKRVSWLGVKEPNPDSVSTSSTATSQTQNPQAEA
The following applies: covalent, 40 uM 11-cis-retinal.

A further test concerns the target T4, Eat-BRh2 (BRh2, Eat-B2) (Eumaeus atala, UniProt A0A7T3U8M8).
T4 sequence (A0A7T3U8M8 1-380): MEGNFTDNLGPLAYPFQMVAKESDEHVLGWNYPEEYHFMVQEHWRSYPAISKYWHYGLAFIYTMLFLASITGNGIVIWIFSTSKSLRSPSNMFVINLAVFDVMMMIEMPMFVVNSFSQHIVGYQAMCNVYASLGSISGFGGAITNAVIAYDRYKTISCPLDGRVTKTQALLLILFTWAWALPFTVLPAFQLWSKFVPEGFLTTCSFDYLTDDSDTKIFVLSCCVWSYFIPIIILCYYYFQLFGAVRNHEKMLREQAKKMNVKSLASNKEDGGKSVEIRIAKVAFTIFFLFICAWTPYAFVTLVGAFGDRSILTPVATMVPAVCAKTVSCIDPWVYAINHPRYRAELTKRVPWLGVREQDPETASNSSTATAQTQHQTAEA
The following applies: covalent, 40 uM 11-cis-retinal.

On to `CC1=C(/C=C/C(C)=C/C=C\C(C)=C\C=O)C(C)(C)CCC1` [11-cis-retinal], for which the λmax was 569 ± 2 nm in test [1]; 352 ± 3.5 nm on Eumaeus atala UVRh; 435 ± 2 nm on Eat-BRh1 (BRh1, Eat-B1); 500 ± 2 nm at Eat-BRh2 (BRh2, Eat-B2).
